The source of these data is patent EP4644383A1 (Jiangsu Yahong Meditech Co., Ltd., priority 2022, dated 2024).

A word on the IC50: it is the concentration needed to halve the response being measured.

Holding throughout (assay type): biochemical
The target of one experiment is T1, FGFR4 (Homo sapiens, UniProt P22455).
T1 construct: FGFR4's cytoplasmic domain [460-802 (terminal) amino acids]; purchased Carna 08-136
In words: FGFR4 kinase activity inhibition assay (LanthaScreen TR-FRET). As to conditions: FGFR4 kinase, TR-FRET; read-out: IC50 (nM) FGFR4. On the procedure: (§1) FGFR1 kinase activity was measured using Invitrogen LanthaScreen™ assay technology, which utilized fluorescently-labeled peptides and terbium-labeled antibodies to directly measure an amount of the phosphorylated substrate through time-resolved fluorescence energy transfer (TR-FRET). • ① The test compounds were diluted: starting from a concentration of 1 µM, with a buffer solution in a three-fold serial dilution, the buffer solution being composed of 50 mM HEPES, 10 mM MgCl2, 0.01% TritonX-100, 0.01% BSA, 4 mM DTT (pH 7.5), and 1% DMSO; • ② 0.01 nM recombinant human GST fusion protein FGFR1's cytoplasmic domain [398-822 (terminal) amino acids] (Carna: 08-133) was formulated into a 2 × solution, mixed well with the test compounds, and incubated at 23°C for 10 minutes; • ③ 28 nM Fluorescein-Poly GT peptide substrate (Life Technologies: PV3611) and 28 µM ATP were formulated into a 2 × solution, mixed well with the test compounds and enzyme in ②, and incubated at 23°C for 30 minutes; • ④ 10 µL of 2nM Tb-PY20 antibody (Life Technologies: PV3552) and 10 mM EDTA were added to quench the kinase reaction, and incubated at 22°C for 60 minutes. • ⑤ The reaction was measured using a PerkinElmer EnVision multimode plate reader through TR-FRET dual wavelength detection. • 1. The RFU values were copied from the Envision program. • 2. The ratio of RFU 520nm/RFU 495nm was calculated. • 3. The value of the ratio was converted to a percentage inhibition value. % Inhibition = (max-data)/(max-min) × 100 [formula]
(§2) "Min" represents the ratio of the control without enzyme, "max" represents the ratio of the DMSO control, and "data" represents the ratio of the compounds in wells with different concentrations.
(§3) "Top" refers to the maximum response, "Bottom" refers to the minimum response, and "HillSlope" refers to the slope of the curve.
According to the same method as that in the FGFR1 kinase activity inhibition assay, the inhibitory activities against FGFR2, FGFR3 and FGFR4 were tested using FGFR2's cytoplasmic domain [399-821 (terminal) amino acids] (Carna: 08-134), FGFR3's cytoplasmic domain [436-806 (terminal) amino acids] (Carna: 08-135) and FGFR4's cytoplasmic domain [460-802 (terminal) amino acids] (Carna: 08-136), respectively. Table 1 reports the kinase activity inhibition results and selectivity towards FGFR3 of each compound.
(TR-FRET usually uses a lanthanide donor and a delayed reading to cut background.)

Another experiment addresses T2, FGFR3 (Homo sapiens, UniProt P22607).
T2 construct: FGFR3's cytoplasmic domain [436-806 (terminal) amino acids]; purchased Carna 08-135
The experiment can be described thus: FGFR3 kinase activity inhibition assay (LanthaScreen TR-FRET). As to conditions: for IC50: FGFR3 kinase, TR-FRET, read-out: IC50 (nM) FGFR3; for Selectivity (X) FGFR1/FGFR3: ratio of IC50 FGFR1/FGFR3, selectivity towards FGFR3; for Selectivity (X) FGFR2/FGFR3: ratio of IC50 FGFR2/FGFR3, selectivity towards FGFR3; for Selectivity (X) FGFR4/FGFR3: ratio of IC50 FGFR4/FGFR3, selectivity towards FGFR3. In short, it runs like this: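 Read-out is TR-FRET, with the 520 nm/495 nm emission ratio normalised to DMSO (max) and enzyme-free (min) controls. Enzyme was the FGFR3 cytoplasmic domain, residues 436-806. EDTA (10 mM) stopped the reaction, followed by 60 min at 22 °C before reading.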

A further experiment concerns the target T3, FGFR2 (Homo sapiens, UniProt P21802).
T3 construct: FGFR2's cytoplasmic domain [399-821 (terminal) amino acids]; purchased Carna 08-134
The experiment can be described thus: FGFR2 kinase activity inhibition assay (LanthaScreen TR-FRET). As to conditions: FGFR2 kinase, TR-FRET; read-out: IC50 (nM) FGFR2. On the procedure:
as §1, §2, §3
According to the same method as that in the FGFR1 kinase activity inhibition assay, the inhibitory activities against FGFR2, FGFR3 and FGFR4 were tested using FGFR2's cytoplasmic domain [399-821 (terminal) amino acids] (Carna: 08-134), FGFR3's cytoplasmic domain [436-806 (terminal) amino acids] (Carna: 08-135) and FGFR4's cytoplasmic domain [460-802 (terminal) amino acids] (Carna: 08-136), respectively. […]

Another experiment has as its target T4, FGFR1 (Homo sapiens, UniProt P11362).
T4 construct: cytoplasmic domain [398-822 (terminal) amino acids]; purchased Carna 08-133
The experiment can be described thus: FGFR1 kinase activity inhibition assay (LanthaScreen TR-FRET). Conditions: FGFR1 kinase, TR-FRET; read-out: IC50 (nM) FGFR1. In short, it runs like this:
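Emission ratio 520 nm/495 nm by TR-FRET after stopping reaction with 10 mM EDTA and 60 min incubation at 22°C. Inhibition normalized between no-enzyme (min) and DMSO (max) controls, then fitted to a four-parameter curve (Top, Bottom, HillSlope).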

T4 sequence (P11362 398-822): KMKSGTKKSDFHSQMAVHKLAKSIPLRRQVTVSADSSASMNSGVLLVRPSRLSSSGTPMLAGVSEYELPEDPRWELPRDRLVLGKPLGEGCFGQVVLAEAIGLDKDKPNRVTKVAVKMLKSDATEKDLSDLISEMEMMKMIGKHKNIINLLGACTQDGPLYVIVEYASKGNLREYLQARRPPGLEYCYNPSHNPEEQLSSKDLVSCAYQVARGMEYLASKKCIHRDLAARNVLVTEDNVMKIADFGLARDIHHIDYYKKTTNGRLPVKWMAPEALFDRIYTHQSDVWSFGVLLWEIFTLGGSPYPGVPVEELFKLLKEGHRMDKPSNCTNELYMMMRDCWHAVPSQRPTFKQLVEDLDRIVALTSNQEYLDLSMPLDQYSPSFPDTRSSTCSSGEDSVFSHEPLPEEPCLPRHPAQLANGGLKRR
T1 sequence (P22455 460-802): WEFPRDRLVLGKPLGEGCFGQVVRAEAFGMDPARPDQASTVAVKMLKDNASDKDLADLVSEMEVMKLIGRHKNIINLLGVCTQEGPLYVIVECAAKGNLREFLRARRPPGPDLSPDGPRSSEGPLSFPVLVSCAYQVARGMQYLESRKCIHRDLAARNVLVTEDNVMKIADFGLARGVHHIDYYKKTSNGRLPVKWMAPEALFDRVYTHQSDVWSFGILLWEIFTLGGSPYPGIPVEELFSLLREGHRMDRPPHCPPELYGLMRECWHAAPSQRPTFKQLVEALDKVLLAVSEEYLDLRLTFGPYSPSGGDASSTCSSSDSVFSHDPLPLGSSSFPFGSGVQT
T2 sequence (P22607 436-806): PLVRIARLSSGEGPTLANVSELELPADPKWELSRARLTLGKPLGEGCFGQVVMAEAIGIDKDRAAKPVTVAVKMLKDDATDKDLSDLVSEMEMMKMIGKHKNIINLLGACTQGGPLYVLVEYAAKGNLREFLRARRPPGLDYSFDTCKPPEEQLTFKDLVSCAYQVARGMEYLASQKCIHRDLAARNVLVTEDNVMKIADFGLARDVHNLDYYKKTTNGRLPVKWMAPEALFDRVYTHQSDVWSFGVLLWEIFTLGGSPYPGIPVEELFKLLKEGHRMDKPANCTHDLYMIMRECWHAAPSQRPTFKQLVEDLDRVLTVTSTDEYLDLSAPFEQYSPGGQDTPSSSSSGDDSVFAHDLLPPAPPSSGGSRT
T3 sequence (P21802 399-821): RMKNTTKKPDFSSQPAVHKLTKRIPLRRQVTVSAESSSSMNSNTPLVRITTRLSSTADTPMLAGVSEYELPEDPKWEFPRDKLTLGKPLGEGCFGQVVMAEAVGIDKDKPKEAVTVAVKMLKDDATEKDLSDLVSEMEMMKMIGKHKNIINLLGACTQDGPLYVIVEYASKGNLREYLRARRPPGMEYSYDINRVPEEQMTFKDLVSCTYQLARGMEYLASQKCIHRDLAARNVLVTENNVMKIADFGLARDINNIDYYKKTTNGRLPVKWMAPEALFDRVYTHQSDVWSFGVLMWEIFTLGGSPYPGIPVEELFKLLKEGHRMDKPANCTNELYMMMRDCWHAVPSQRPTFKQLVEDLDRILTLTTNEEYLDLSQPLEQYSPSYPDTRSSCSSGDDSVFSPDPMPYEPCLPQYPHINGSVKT

As to `Cc1cc(O[C@H](C)c2c(Cl)cncc2Cl)cc2c(-c3cnn(C)c3)n[nH]c12` [Example 2, (R)-5-(1-(3,5-dichloropyridin-4-yl)ethoxy)-7-methyl-3-(1-methyl-1H-pyrazol-4-yl)-1H-indazole], the 50% inhibitory concentration (IC50) on FGFR4 is over 100 nM. For the same compound, on FGFR3, the IC50 was 1 to 10 nM, the “Selectivity (X) FGFR1/FGFR3” value was “B (B represents 20 ≤ multiple X<50)”, the “Selectivity (X) FGFR2/FGFR3” value was “A (A represents 1 ≤ multiple X<20)” and the “Selectivity (X) FGFR4/FGFR3” value was “B (B represents 20 ≤ multiple X<50)”. Moreover, on FGFR2, the IC50 lay within 10 to 100 nM. Also, the IC50 at FGFR1 was over 100 nM.

On to `C[C@@H](Oc1cc(F)c2[nH]nc(-c3cnn(C)c3)c2c1)c1c(Cl)cncc1Cl` [Example 5, (R)-5-(1-(3,5-dichloropyridin-4-yl)ethoxy)-7-fluoro-3-(1-methyl-1H-pyrazol-4-yl)-1H-indazole], for which the IC50 is 1 to 10 nM on FGFR4, under 1 nM at FGFR3, under 1 nM on FGFR2 and 1 to 10 nM at FGFR1. Further, the “Selectivity (X) FGFR1/FGFR3” value at FGFR3 is “A (A represents 1 ≤ multiple X<20)”. At FGFR3, the “Selectivity (X) FGFR2/FGFR3” value is reported as “A (A represents 1 ≤ multiple X<20)”. The “Selectivity (X) FGFR4/FGFR3” value on FGFR3 is “B (B represents 20 ≤ multiple X<50)”.

For the compound `C[C@@H](Oc1cc(C2CC2)c2[nH]nc(-c3cnn(C)c3)c2c1)c1c(Cl)cncc1Cl` [Example 7, (R)-7-cyclopropyl-5-(1-(3,5-dichloropyridin-4-yl)ethoxy)-3-(1-methyl-1H-pyrazol-4-yl)-1H-indazole], on FGFR4, the half-maximal inhibitory concentration (IC50) is over 100 nM. Also, on FGFR3, the IC50 is 1 to 10 nM, the “Selectivity (X) FGFR1/FGFR3” value is reported as “B (B represents 20 ≤ multiple X<50)”, the “Selectivity (X) FGFR2/FGFR3” value is “A (A represents 1 ≤ multiple X<20)” and the “Selectivity (X) FGFR4/FGFR3” value is “B (B represents 20 ≤ multiple X<50)”. Moreover, the IC50 on FGFR2 lay in the range of 10 to 100 nM. Besides, on FGFR1, the IC50 was over 100 nM.

On to `C[C@@H](Oc1cc(F)c2[nH]nc(-c3cnn(CCS(C)(=O)=O)c3)c2c1)c1c(Cl)cncc1Cl` [Example 11, (R)-5-(1-(3,5-dichloropyridin-4-yl)ethoxy)-7-fluoro-3-(1-(2-(methylsulfonyl)ethyl)-1H-pyrazol-4-yl)-1H-indazole], for which, at FGFR4, the IC50 is 10 to 100 nM. At FGFR3, the 50% inhibitory concentration (IC50) fell in the range of 1 to 10 nM, the “Selectivity (X) FGFR1/FGFR3” value is recorded as “A (A represents 1 ≤ multiple X<20)”, the “Selectivity (X) FGFR2/FGFR3” value is “A (A represents 1 ≤ multiple X<20)” and the “Selectivity (X) FGFR4/FGFR3” value is reported as “A (A represents 1 ≤ multiple X<20)”. Further, on FGFR2, the IC50 is 1 to 10 nM. Further, the half-maximal inhibitory concentration (IC50) at FGFR1 lay within 10 to 100 nM.

`C[C@@H](Oc1cc(F)c2[nH]nc(-c3cnn(CC4CC4)c3)c2c1)c1c(Cl)cncc1Cl` [Example 14, (R)-3-(1-(cyclopropylmethyl)-1H-pyrazol-4-yl)-5-(1-(3,5-dichloropyridin-4-yl)ethoxy)-7-fluoro-1H-indazole]: at FGFR4, the IC50 was 10 to 100 nM. On FGFR3, the concentration for half-maximal inhibition (IC50) lay within 1 to 10 nM, the “Selectivity (X) FGFR1/FGFR3” value was “A (A represents 1 ≤ multiple X<20)”, the “Selectivity (X) FGFR2/FGFR3” value is reported as “A (A represents 1 ≤ multiple X<20)” and the “Selectivity (X) FGFR4/FGFR3” value is “A (A represents 1 ≤ multiple X<20)”. Also, the IC50 at FGFR2 is 1 to 10 nM. For the same compound, the concentration for half-maximal inhibition (IC50) on FGFR1 is 10 to 100 nM.

Regarding `C[C@@H](Oc1cc(F)c2[nH]nc(-c3cnn(CCN(C)C)c3)c2c1)c1c(Cl)cncc1Cl` [Example 15, (R)-2-(4-(5-(1-(3,5-dichloropyridin-4-yl)ethoxy)-7-fluoro-1H-indazol-3-yl)-1H-pyrazol-1-yl)-N,N-dimethylethan-1-amine], the IC50 on FGFR4 was over 100 nM. On FGFR3, the IC50 was in the range of 1 to 10 nM, the “Selectivity (X) FGFR1/FGFR3” value is on record as “A (A represents 1 ≤ multiple X<20)”, the “Selectivity (X) FGFR2/FGFR3” value is on record as “A (A represents 1 ≤ multiple X<20)” and the “Selectivity (X) FGFR4/FGFR3” value is on record as “C (C represents 50 ≤ multiple X<100)”. The 50% inhibitory concentration (IC50) at FGFR2 fell in the range of 1 to 10 nM. Moreover, the concentration for half-maximal inhibition (IC50) at FGFR1 lay in the range of 10 to 100 nM.

`C[C@@H](Oc1cc(F)c2[nH]nc(-c3cnn(CCCN(C)C)c3)c2c1)c1c(Cl)cncc1Cl` [Example 17, (R)-3-(4-(5-(1-(3,5-dichloropyridin-4-yl)ethoxy)-7-fluoro-1H-indazol-3-yl)-1H-pyrazol-1-yl)-N,N-dimethylpropan-1-amine]: at FGFR4, the IC50 is over 100 nM. Moreover, on FGFR3, the IC50 is under 1 nM, the “Selectivity (X) FGFR1/FGFR3” value is given as “A (A represents 1 ≤ multiple X<20)”, the “Selectivity (X) FGFR2/FGFR3” value is given as “A (A represents 1 ≤ multiple X<20)” and the “Selectivity (X) FGFR4/FGFR3” value is listed as “D (D represents 100 ≤ multiple X)”. For the same compound, the concentration for half-maximal inhibition (IC50) at FGFR2 is under 1 nM. In addition, the IC50 at FGFR1 lay in the range of 1 to 10 nM.

On to `C[C@@H](Oc1cc(F)c2[nH]nc(-c3cnn(CCN4CCCCC4)c3)c2c1)c1c(Cl)cncc1Cl` [Example 23, (R)-5-(1-(3,5-dichloropyridin-4-yl)ethoxy)-7-fluoro-3-(1-(2-(piperidin-1-yl)ethyl)-1H-pyrazol-4-yl)-1H-indazole], for which, on FGFR4, the half-inhibitory concentration (IC50) is over 100 nM. Besides, on FGFR3, the IC50 was in the range of 1 to 10 nM, the “Selectivity (X) FGFR1/FGFR3” value was “B (B represents 20 ≤ multiple X<50)”, the “Selectivity (X) FGFR2/FGFR3” value is on record as “A (A represents 1 ≤ multiple X<20)” and the “Selectivity (X) FGFR4/FGFR3” value was “D (D represents 100 ≤ multiple X)”. Further, on FGFR2, the concentration for half-maximal inhibition (IC50) is 1 to 10 nM. The IC50 at FGFR1 was in the range of 10 to 100 nM.

Consider `C[C@@H](Oc1cc(F)c2[nH]nc(-c3cnn(CCN4CCS(=O)(=O)CC4)c3)c2c1)c1c(Cl)cncc1Cl` [Example 24, (R)-4-(2-(4-(5-(1-(3,5-dichloropyridin-4-yl)ethoxy)-7-fluoro-1H-indazol-3-yl)-1H-pyrazol-1-yl)ethyl)thiomo rpholine 1,1-dioxide], for which the IC50 at FGFR4 lay in the range of 10 to 100 nM. Further, on FGFR3, the IC50 was under 1 nM, the “Selectivity (X) FGFR1/FGFR3” value is on record as “A (A represents 1 ≤ multiple X<20)”, the “Selectivity (X) FGFR2/FGFR3” value is “A (A represents 1 ≤ multiple X<20)” and the “Selectivity (X) FGFR4/FGFR3” value is “C (C represents 50 ≤ multiple X<100)”. Moreover, the half-maximal inhibitory concentration (IC50) on FGFR2 was 1 to 10 nM. Also, the IC50 on FGFR1 fell in the range of 10 to 100 nM.

Consider `Cc1cc(O[C@H](C)c2c(Cl)cncc2Cl)cc2c(-c3cnn(CCN4CCOCC4)c3)n[nH]c12` [Example 27, (R)-4-(2-(4-(5-(1-(3,5-dichloropyridin-4-yl)ethoxy)-7-methyl-1H-indazol-3-yl)-1H-pyrazol-1-yl)ethyl)morpholine], for which the 50% inhibitory concentration (IC50) at FGFR4 is over 100 nM; on FGFR3, 1 to 10 nM; on FGFR2, 10 to 100 nM; on FGFR1, over 100 nM. Moreover, the “Selectivity (X) FGFR1/FGFR3” value at FGFR3 is on record as “B (B represents 20 ≤ multiple X<50)”. For the same compound, the “Selectivity (X) FGFR2/FGFR3” value on FGFR3 is on record as “A (A represents 1 ≤ multiple X<20)”. The “Selectivity (X) FGFR4/FGFR3” value on FGFR3 is reported as “C (C represents 50 ≤ multiple X<100)”.

As for `CC(Oc1ccc2[nH]nc(-c3cnn(CCCS(C)(=N)=O)c3)c2c1)c1cc(F)cc2nccnc12` (stereo not drawn) [Example 185], the IC50 at FGFR4 was 10 to 100 nM. At FGFR3, the IC50 was under 1 nM, the “Selectivity (X) FGFR1/FGFR3” value is listed as “B (B represents 20 ≤ multiple X<50)” and the “Selectivity (X) FGFR4/FGFR3” value is given as “B (B represents 20 ≤ multiple X<50)”. The IC50 at FGFR1 is 10 to 100 nM.
